Test results: patent US20240197700A1, “Methods and Compositions for Treating Lysosomal Storage Disorders” (Sanford Health, priority 2021, published 2024)
“Also recorded” adds a separate entry of the source.

Test system: Cln3^Δex7/8 mice
Test: SubC burden (immunohistochemistry) in brain of Cln3^Δex7/8 mice
Format: in vivo, mouse
Procedure: Specific experimental details are included in figure legends. In general, after collection and preparation, MEFs and PNCs were dosed with vehicle or AF38469 (40 nM, 400 nM. or 4 μM) on DIV3 and DIV5. On DIV7, cells were treated with the following dyes: Hoechst 33342 (1:1000 dilution), LysoTrackerT™ Red DND-99 (1:10,000 dilution), fixed, and imaged. Mice were given vehicle or AF38469 (78.125 μg/ml, 3.125 μg/ml, 0.3125 μg/ml or 0.03125 μg/ml equating approximately to 250 μg/mouse/day, 10 μg/mouse/day, 1 μg/mouse/day, and […], respectively, given a mouse's daily water intake of approximately 3.2 ml per day) in drinking water beginning at wean. Body weight was measured bi-weekly, and a force actimeter test was performed on Cln2^R207X mice at 10 weeks of age. Body weight was measured every month for Cln3^Δex7/8 mice. At 11 and 16 weeks of age, respectively, Cln2^R207X and Cln3^Δex7/8 mice along with age matched wild type control mice were CO2 euthanized and intracardially perfused with PBS. Brains were collected and placed on a 1 mm sagittal brain block. Brains were sliced at the midline and 3 mm right of the midline. One hemisphere was fixed in 4% PFA and sectioned at 50 microns on a vibratome. Immunohistochemistry was performed on free-floating sections. For mitochondrial ATP synthase subunit C (SubC), glial fibrillary acidic protein (GFAP), and cluster of differentiation 68 (CD68) immunolabeling, primary antibodies included anti-SubC (Abcam, ab181243; 1:1000), anti-GFAP (Dako, Z0334; 1:5000), anti-CD68 (AbD Serotec, MCA1957; 1:2000), and secondary antibodies included anti-rabbit biotinylated (Vector Labs, BA-1000 1:1000) and anti-rat (Vector Labs, BA-9400 1:1000). Coverslips were mounted on slides using antifade-mounting media and were stored in the dark before imaging. Sections were imaged and analyzed using an Aperio Digital Pathology Slide Scanner (AT2) and associated software. Images were extracted from S1BF of the somatosensory cortex and the VPM/VPL of the thalamus, with multiple images taken of multiple tissues from each animal.
Short-term chronic treatment with AF38469 reduces storage material burden in Cln2^R207X and Cln3^Δex7/8 mice. Beginning at wean, wild type and Cln2^R207X mice were treated with vehicle (0.2408% DMSO) or AF38469 (0.03125 μg/ml, 0.3125 μg/ml, 3.125 μg/ml, 78.125 μg/ml) continuously through the drinking water continuing until sacrifice at 11 weeks. Beginning at wean, wild type and Cln3^Δex7/8 mice were treated with vehicle (0.2408% DMSO) or AF38469 (0.03125 μg/ml, 0.3125 μg/ml, 3.125 μg/ml, 78.125 μg/ml) continuously through the drinking water until sacrifice at 16 weeks. Upon sacrifice, one hemisphere of brain was sectioned at 50 microns on a vibratome; DAB staining immunohistochemistry was then performed using anti-SubC (Abcam, ab181243) anti-rabbit biotinylated (Vector Labs, BA-1000). Sections were imaged and analyzed using an Aperio Digital Pathology Slide Scanner (AT2) and associated software. Images were extracted from S1BF of the somatosensory cortex and the VPM/VPL of the thalamus, key brain regions for Batten disease pathology. Percent area of immunoreactivity were quantified using a threshold analysis in ImageJ™. Statistical analyses were performed using GraphPad Prism™ (v8.4.3; San Diego, CA). […] Increasing concentrations of AF38469 and corresponding genotypes are shown along the x-axis. Nested one-way ANOVA. […]

| SMILES | Subunit C burden (0.03125 μg/ml, 0.3125 μg/ml in drinking water, somatosensory cortex and VPM/VPL of the thalamus, 16 weeks) | Subunit C burden (3.125 μg/ml in drinking water, somatosensory cortex and VPM/VPL of the thalamus, 16 weeks) | Subunit C burden (3.125 μg/ml, 78.125 μg/ml in drinking water, somatosensory cortex, 16 weeks) | SubC burden (LM11A-31 0.6 mg/mL, VPM/VPL of the thalamus) | Subunit C burden (LM11A-31 0.6 mg/mL, somatosensory cortex (S1BF)) |
| --- | --- | --- | --- | --- | --- |
| Cc1cccc(NC(=O)c2ccc(C(F)(F)F)cc2C(=O)O)n1 [AF38469, 2-((6-methylpyridin-2-yl)carbamoyl)-5-(trifluoromethyl)benzoic acid] | significantly decreased | significantly decreased | significantly decreased | – | – |
| CC[C@H](C)[C@H](N)C(=O)NCCN1CCOCC1 [LM11A-31, N-[2-(morpholin-4-yl)ethyl]-L-isoleucinamide] | – | – | – | decrease; also recorded: decreasing trend | increase; also recorded: did not significantly decreased |
